Measurements reported in patent US20060040951A1, “Use of 5-ht2 receptor antagonists for the treatment of sleep disorders” (Merck Patent GmbH, priority 2002, published 2006).

How the values were obtained:
rats [1] = assay: Example B: EEG sleep-stage recording of non-anaesthetised rats over 12 hours, crossover study versus vehicle; type: in vivo, rat
Description: In order to measure the brain waves, EEG electrodes are implanted into the brain of anaesthetised rats. After a recovery time of 15 days, these electrodes are connected to an amplifier via a flexible cable, and the brain waves of the non-anaesthetised animals are recorded over 12 hours. (3-Cyano-1H-indol-7-yl)-[4-(4-fluorophenethyl)piperazin-1-yl]methanone is dissolved in advance in a concentration of 0.1 ml/100 g of peanut oil. This solution (compound) or, for comparison, merely the solvent (vehicle) is administered orally to the test animals in a dose of 3 mg/kg. From the filtered and amplified brain-wave signals, the sleep stages are evaluated via Fourier spectral analysis including certain criteria. The REM and non-REM sleep stages can be identified with reference to the patterns. The experimental results are shown in Tables 1 (effect of the substance) and 2 (significances of the measurement values). It becomes clear that (3-cyano-1H-indol-7-yl)-[4-(4-fluorophenethyl)piperazin-1-yl]methanone results in a significant extension both of non-REM sleep and of REM sleep and that these extensions are significant.
This experiment is a crossover study. This means that one and the same animal receives either first solvent (vehicle) and then, after a waiting time of one week, the test substance (3-cyano-1H-indol-7-yl)-[4-(4-fluorophenethyl)piperazin-1-yl]methanone (compound), or the administration is carried out in the reverse sequence.
The measured values after vehicle or compound administration are compared with one another using the statistical method of analysis of variance (ANOVA). The p value is a statistical measure of the probability that a difference occurs by chance between the measurement values or is caused by the substance administration. According to international standards, a p value of below 0.05 is regarded as “significant”.
It is clear from FIG. 1 that in particular stages 3 and 4, which are regarded as slow-wave sleep, are extended in non-REM sleep. […] The term delta power or delta waves denotes the “slow” waves recorded in the EEG which are characteristic of slow-wave sleep stages. For each rat, the hour average after solvent (vehicle) treatment was firstly determined and subtracted from the value after substance treatment.

rats [2] = assay: Brain-wave (EEG) recording of rats over 6 hours during the dark phase; type: in vivo, rat
[3] = cited from earlier work
[4] = rats, 3 mg/kg orally in peanut oil, 12 h recording, average ± standard error
[5] = rats, 3 mg/kg orally, 12 h recording, average ± standard error
[6] = 3 mg/kg per os, 6 h recording during dark phase

N#Cc1c[nH]c2c(C(=O)N3CCN(CCc4ccc(F)cc4)CC3)cccc12 [(3-cyano-1H-indol-7-yl)-[4-(4-fluorophenethyl)piperazin-1-yl]methanone]
relative delta power in the rat EEG, difference from the control level (rats [1]; FIG. 1, as a function of the time of day): significantly increased overall
NREM sleep Total Time (rats [1]; [4]): 232.8 ± 13.1 min
REM sleep Total Time (rats [1]; [4]): 45.3 ± 3.8 min
Wakefulness Total Time (rats [1]; [4]): 440.6 ± 15.1 min
Inter-REM interval (rats [1]; [5]): 28.8 ± 3.0 min
NREM sleep Episode Duration (rats [1]; [5]): 184.8 ± 9.5 s
REM Latency (rats [1]; [5]): 5.2 ± 0.3 min
REM sleep Episode Duration (rats [1]; [5]): 93.1 ± 6.6 s
Wakefulness Episode Duration (rats [1]; [5]): 422.5 ± 29.3 s
average increase in non-REM sleep (rats [2]; [6]): about 4 min/h
maximum increase in non-REM sleep (rats [2]; [6]): about 5 minutes per hour
extension of REM sleep, average (rats [2]; 6 h dark phase): 0.8 min/h
extension of REM sleep, maximum (rats [2]; 6 h dark phase): 2 min/h
what the change in REM sleep results from (rats [2]; 6 h dark phase): increase in the number of REM episodes

CCc1nn(CCCN2CCN(c3cccc(Cl)c3)CC2)c(=O)n1CCOc1ccccc1 [nefazodone]
effect on REM sleep ([3]; literature report): extend REM sleep
effect on slow-wave phases 3 and 4 of non-REM sleep ([3]; literature report): remain unchanged

O=C1CCC(N2C(=O)c3ccccc3C2=O)C(=O)N1 (centres unmarked) [thalidomide]
effect on both sleep phases ([3]; known sleeping drug): extends both sleep phases

Cc1nnc2n1-c1ccc(Cl)cc1C(c1ccccc1Cl)=NC2 [triazolam, reference compound]
what the change in REM sleep results from (rats [2]; 6 h dark phase): reduction in the duration of the individual REM phases
extension of non-REM sleep (rats [2]; dose 0.1 mg/kg, 6 h dark phase): 2 min/h
extension of non-REM sleep (maximum effect) (rats [2]; dose 0.4 mg/kg, 6 h dark phase): 6.5 min/h
